Test results from ChEMBL document CHEMBL3244209, “Tripeptide analogues of melanocyte-stimulating hormone release-inhibiting hormone (Pro-Leu-Gly-NH2) as inhibitors of oxotremorine-induced tremor” (1979).
Calls of active or inactive are those of the source. The calls are words filed in the database; no cut-off is given here. Square brackets hold non-standard residues; d marks the D form. Peptide text beside a SMILES is read from it. * marks the point of attachment. pGlu = O=C1CC[C@@H](C(=O)O)N1; NHtBu = CC(C)(C)N*; NHiPr = CC(C)N*; NHPr = CCCN*; For = O=C*

Columns and labels:
Mus musculus [1] = assay: Inhibition of oxotremorine-induced tremor in NMRI mouse at 0.13 to 16 mg/kg, ip administered 1 hr prior to oxotremorine challenge; assay type: functional, organism-based
Mus musculus [2] = assay: Inhibition of oxotremorine-induced tremor in ip dosed NMRI mouse administered 1 hr prior to oxotremorine challenge; assay type: functional

SMILES | inhibition (Mus musculus [1]) | Activity (Mus musculus [2]) [mg/kg]
C#CCNC(=O)CNC(=O)[C@H](CC(C)C)NC(=O)[C@@H]1CCC(=O)N1 | inactive | 
CC(C)C[C@@H]1NC(=O)[C@@H]2CCCN2C1=O | inactive | 
CC(C)C[C@H](NC(=O)C1CCCC1)C(=O)NCC(N)=O | inactive | 
CCN(C)C(=O)CNC(=O)[C@H](CC(C)C)NC(=O)[C@@H]1CCC(=O)N1 | inactive | 
CCNC(=O)CNC(=O)[C@H](CC(C)C)NC(=O)C1CCCC1 | inactive | 
CC(C)C[C@H](NC(=O)[C@@H]1CCCN1C=O)C(=O)NCC(N)=O (For-Pro-Leu-Gly-NH2) | inactive | 
CCNC(=O)CNC(=O)[C@H](CC(C)C)NC(=O)[C@@H]1CCCN1C=O (For-Pro-Leu-Gly-NHEt) | inactive | 
N=C(N)NCCC[C@H](NC(=O)[C@@H]1CCCN1)C(=O)NCC(N)=O (H-Pro-Arg-Gly-NH2) | inactive | 
CC(C)C[C@H](NC(=O)[C@@H]1CCCN1)C(=O)NCC(N)=O (H-Pro-Leu-Gly-NH2) |  | 3.6
NCCCC[C@H](NC(=O)[C@@H]1CCCN1)C(=O)NCC(N)=O (H-Pro-Lys-Gly-NH2) | inactive | 
CCNC(=O)CNC(=O)[C@H](CC(C)C)NC(=O)[C@@H]1CCC(=O)N1 ([pGlu]-Leu-Gly-NHEt) |  | 7.8
CNC(=O)CNC(=O)[C@H](CC(C)C)NC(=O)[C@@H]1CCC(=O)N1 ([pGlu]-Leu-Gly-NHMe) | inactive | 
CCCNC(=O)CNC(=O)[C@H](CC(C)C)NC(=O)[C@@H]1CCC(=O)N1 ([pGlu]-Leu-Gly-NHPr) |  | 10
CC(C)C[C@H](NC(=O)[C@@H]1CCC(=O)N1)C(=O)NCC(=O)NC(C)C ([pGlu]-Leu-Gly-NHiPr) |  | 2.9
CC(C)C[C@H](NC(=O)[C@@H]1CCC(=O)N1)C(=O)NCC(=O)NC(C)(C)C ([pGlu]-Leu-Gly-NHtBu) | inactive | 
CC(C)C[C@H](NC(=O)[C@@H]1CCC(=O)N1)C(=O)NCC(=O)N(C)C ([pGlu]-Leu-Gly-NMe2) |  | 1.3
